The text below walks through data of patent US10633364B2, “Crystals of quinazoline derivative and preparation method therefor” (Xuanzhu Pharma Co., Ltd., priority 2015, dated 2020).

The nature of data set [1]: Pharmacokinetics of different forms in beagle dogs. Format: in vivo. The note with it: capsule, 3 mg/kg. Here is the method: Animal subject: beagle dogs, male, weighed 8˜14 kg, 3 dogs/crystal form. Beagle dogs were purchased from Beijing Marshall Biotechnology Co. Ltd.
Administration: three test samples were prepared into capsules, at an administration dose of 3 mg/kg according to body weight of dog.
About 37.3 mg of an amorphous compound was weighed, and packaged into hollow capsules (three capsules in total, one capsule per dog).
Blood was collected 10 min, 30 min, 1 h, 2 h, 4 h, 6 h, 8 h, and 24 h after administration. Before blood collection, the animals were fixed, and whole blood (about 400 μL) was collected from vein of forelimb at each time point, and added to K2EDTA-containing anticoagulation tubes. The whole blood sample was centrifuged for 6 min at 4° C., 8000 rpm in a high speed centrifuge, and plasma was separated. Plasma needed to be prepared within 30 min after blood collection, and plasma was stored at −80° C. in a refrigerator.
The plasma samples were analyzed by protein precipitation: to plasma (50 μL), an internal standard Afatinib dimaleate (200 μL, 50 ng/mL acetonitrile solution) was added; the resultant mixture was vortexed at 1500 rpm for 3 min, and centrifuged at 12000 rpm for 5 min; to the supernatant (100 μL), water (100 μL) was added; the resultant mixture was mixed homogeneously under vortexing and analyzed by LC-MS/MS for blood concentration.
PK parameters were calculated by using Pharsight Phoenix 6.2 software.

Data set [2] is described as follows: Soluble property test in water. Format: physicochemical. Here is the method: (1) Soluble property test: to a test sample, adding a corresponding solvent dropwise in a small amount for several times, shaking in a 25° C. thermostat water bath until the sample was completely dissolved, and calculating the dissolved concentration, i.e., soluble property.
A short description of data set [3]: Solubility test (saturated solubility) in water. Type of data set: physicochemical. From the text:
(2) Solubility test: to a suitable volume of water, adding a test sample until oversaturation occurred in the solution of the sample, vortexing, centrifuging, filtrating the supernatant and then diluting it to a suitable concentration, subjecting the sample to a liquid chromatographic instrument, and determining the saturated concentration of the sample (i.e., saturated solubility) by external standard method.

A short description of data set [4]: Stability of Crystal form I under influencing factor condition (high temperature of 60° C.). Type of data set: physicochemical. Here is the method: A test sample was kept under influencing factor condition (a high temperature of 60° C.) for 30 d. Samples were separately taken at specified time points, and compared with the sample at Day 0. XRPD, relevant substances, contents, character, acidity, moisture content, and the like were determined. During the study, samples were packaged with plastic bags and sealed with aluminum foil outside.
(§1) In accordance with High Performance Liquid Chromatography in Appendix V D in Pharmacopoeia of the People's Republic of China (2010), samples at Day 0 were used as control samples, and samples were determined by external standard method.
(§2) In accordance with High Performance Liquid Chromatography in Appendix V D in Pharmacopoeia of the People's Republic of China (2010), samples were determined by area normalization method.
(§3) The moisture content was determined in accordance with First Method for Determining Moisture Content B (Coulometric Titration) in Appendix VIII M in Pharmacopoeia of the People's Republic of China (2010).

Data set [5] can be described thus: Stability of Crystal form I under accelerated condition and long-term condition. Format: physicochemical. Here is the method:
Test samples were kept under accelerated condition (40° C.+RH 75%) for 6 months. Samples were separately taken at specified time points. XRPD, character, relevant substances, content, acidity, moisture content and the like were studied.
Test samples were kept under long-term condition (25° C.) for 6 months. Samples were separately taken at specified time points. Important items of stability (relevant substances) were studied.
At the last time point of the accelerated condition and long-term condition, XRPD, character, relevant substances, content, pH, moisture content and the like were studied.
as §1, §2, §3

Assay in data set [6]: as above
Particulars: 30° C. 1 month. Type of data set: physicochemical.

Data set [7] in a line: Stability of Crystal form II under influencing factor condition. Type of data set: physicochemical. The procedure:
Test samples in culture dishes were left uncovered. The test samples, which were kept under influencing factor conditions (a high temperature of 60° C., 25° C.-high moisture RH 75%, and 25° C.-high moisture RH 92.5%, under the condition of light) for 5 days and 10 days, were studied for stability; and the test samples which were kept at 40° C. for 5 days, 10 days and 30 days, and the test samples which were kept at 25° C. for 30 days and 90 days, were studied for stability. Samples were separately taken at specified time points, and the items (moisture content (Coulomb), relevant substances, XRPD) were studied. In accordance with High Performance Liquid Chromatography in Appendix V D in Pharmacopoeia of the People's Republic of China (2010), samples were determined by area normalization method. The moisture content was determined in accordance with First Method for Determining Moisture Content B (Coulometric Titration) in Appendix VIII M in Pharmacopoeia of the People's Republic of China (2010).

In data set [8] the target is EGFR (Homo sapiens, UniProt P00533). Particulars: disclosed in WO2012027960A1; cited from earlier work.
Chain of EGFR (P00533 25-1210): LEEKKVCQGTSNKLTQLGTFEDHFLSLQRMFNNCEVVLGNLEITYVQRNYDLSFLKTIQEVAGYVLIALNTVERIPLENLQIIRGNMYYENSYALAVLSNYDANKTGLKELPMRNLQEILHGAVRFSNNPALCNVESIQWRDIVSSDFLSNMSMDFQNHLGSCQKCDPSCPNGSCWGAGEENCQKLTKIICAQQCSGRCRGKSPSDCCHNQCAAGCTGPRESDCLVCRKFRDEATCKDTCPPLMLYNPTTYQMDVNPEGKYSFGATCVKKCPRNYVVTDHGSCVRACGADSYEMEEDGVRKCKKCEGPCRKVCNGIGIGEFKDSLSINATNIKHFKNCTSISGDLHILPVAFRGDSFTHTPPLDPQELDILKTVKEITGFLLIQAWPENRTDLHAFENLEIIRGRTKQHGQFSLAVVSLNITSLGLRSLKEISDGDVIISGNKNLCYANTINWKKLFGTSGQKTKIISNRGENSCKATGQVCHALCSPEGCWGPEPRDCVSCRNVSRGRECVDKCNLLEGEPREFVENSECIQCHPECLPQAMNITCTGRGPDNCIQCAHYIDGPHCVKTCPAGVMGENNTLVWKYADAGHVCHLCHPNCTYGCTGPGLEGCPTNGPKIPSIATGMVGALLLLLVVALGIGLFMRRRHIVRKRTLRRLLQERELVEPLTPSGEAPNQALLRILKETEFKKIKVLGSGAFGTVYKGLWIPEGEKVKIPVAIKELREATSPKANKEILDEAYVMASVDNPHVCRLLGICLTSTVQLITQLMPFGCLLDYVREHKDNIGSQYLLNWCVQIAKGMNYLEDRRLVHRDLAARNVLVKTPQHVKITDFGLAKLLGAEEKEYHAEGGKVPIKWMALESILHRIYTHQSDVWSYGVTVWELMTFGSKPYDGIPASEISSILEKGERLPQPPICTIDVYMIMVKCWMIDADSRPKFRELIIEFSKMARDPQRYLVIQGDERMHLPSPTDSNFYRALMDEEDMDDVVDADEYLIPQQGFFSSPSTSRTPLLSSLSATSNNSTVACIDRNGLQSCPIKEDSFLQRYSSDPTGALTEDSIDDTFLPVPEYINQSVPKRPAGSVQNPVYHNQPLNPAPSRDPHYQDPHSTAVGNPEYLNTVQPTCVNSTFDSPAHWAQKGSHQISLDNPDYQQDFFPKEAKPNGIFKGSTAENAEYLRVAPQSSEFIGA
For data set [9], the target named is HER2 (Homo sapiens, UniProt P04626). The note with it: disclosed in WO2012027960A1; cited from earlier work.
Chain of HER2 (P04626 23-1255): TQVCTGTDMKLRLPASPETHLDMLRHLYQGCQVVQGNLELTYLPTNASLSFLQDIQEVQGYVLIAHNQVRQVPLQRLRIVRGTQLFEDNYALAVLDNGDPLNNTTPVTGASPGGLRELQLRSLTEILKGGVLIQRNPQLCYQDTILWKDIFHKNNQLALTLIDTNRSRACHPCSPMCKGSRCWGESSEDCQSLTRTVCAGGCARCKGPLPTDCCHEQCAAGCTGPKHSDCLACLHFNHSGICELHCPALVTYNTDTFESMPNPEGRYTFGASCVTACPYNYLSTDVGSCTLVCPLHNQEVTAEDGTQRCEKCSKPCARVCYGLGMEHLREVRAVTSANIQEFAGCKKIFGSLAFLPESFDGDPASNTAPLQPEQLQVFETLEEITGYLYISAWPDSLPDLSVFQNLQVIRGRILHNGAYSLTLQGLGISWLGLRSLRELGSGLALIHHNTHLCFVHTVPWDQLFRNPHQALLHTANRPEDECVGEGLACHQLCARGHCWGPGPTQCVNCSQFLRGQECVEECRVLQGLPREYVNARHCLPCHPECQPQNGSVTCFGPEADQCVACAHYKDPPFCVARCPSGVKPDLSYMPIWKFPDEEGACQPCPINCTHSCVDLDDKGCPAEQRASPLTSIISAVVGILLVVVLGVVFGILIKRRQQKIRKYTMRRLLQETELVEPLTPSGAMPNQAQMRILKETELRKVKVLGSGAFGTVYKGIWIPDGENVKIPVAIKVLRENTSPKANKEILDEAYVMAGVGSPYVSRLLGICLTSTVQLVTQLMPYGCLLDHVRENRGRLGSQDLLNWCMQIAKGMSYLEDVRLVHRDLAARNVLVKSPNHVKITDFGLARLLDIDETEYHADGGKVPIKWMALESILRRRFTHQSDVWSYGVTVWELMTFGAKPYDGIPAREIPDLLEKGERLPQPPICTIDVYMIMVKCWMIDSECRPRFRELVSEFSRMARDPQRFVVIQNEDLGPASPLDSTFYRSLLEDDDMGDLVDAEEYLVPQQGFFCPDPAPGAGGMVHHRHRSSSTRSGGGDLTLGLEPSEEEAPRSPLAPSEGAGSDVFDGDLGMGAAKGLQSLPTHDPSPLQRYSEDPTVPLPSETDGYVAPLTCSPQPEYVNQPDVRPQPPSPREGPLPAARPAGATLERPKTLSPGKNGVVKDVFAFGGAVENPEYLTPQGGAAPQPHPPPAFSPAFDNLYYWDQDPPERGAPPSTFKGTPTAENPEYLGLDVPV
The target in data set [10] is HER4 (Homo sapiens, UniProt Q15303). Particulars: disclosed in WO2012027960A1; cited from earlier work.
Chain of HER4 (Q15303 26-1308): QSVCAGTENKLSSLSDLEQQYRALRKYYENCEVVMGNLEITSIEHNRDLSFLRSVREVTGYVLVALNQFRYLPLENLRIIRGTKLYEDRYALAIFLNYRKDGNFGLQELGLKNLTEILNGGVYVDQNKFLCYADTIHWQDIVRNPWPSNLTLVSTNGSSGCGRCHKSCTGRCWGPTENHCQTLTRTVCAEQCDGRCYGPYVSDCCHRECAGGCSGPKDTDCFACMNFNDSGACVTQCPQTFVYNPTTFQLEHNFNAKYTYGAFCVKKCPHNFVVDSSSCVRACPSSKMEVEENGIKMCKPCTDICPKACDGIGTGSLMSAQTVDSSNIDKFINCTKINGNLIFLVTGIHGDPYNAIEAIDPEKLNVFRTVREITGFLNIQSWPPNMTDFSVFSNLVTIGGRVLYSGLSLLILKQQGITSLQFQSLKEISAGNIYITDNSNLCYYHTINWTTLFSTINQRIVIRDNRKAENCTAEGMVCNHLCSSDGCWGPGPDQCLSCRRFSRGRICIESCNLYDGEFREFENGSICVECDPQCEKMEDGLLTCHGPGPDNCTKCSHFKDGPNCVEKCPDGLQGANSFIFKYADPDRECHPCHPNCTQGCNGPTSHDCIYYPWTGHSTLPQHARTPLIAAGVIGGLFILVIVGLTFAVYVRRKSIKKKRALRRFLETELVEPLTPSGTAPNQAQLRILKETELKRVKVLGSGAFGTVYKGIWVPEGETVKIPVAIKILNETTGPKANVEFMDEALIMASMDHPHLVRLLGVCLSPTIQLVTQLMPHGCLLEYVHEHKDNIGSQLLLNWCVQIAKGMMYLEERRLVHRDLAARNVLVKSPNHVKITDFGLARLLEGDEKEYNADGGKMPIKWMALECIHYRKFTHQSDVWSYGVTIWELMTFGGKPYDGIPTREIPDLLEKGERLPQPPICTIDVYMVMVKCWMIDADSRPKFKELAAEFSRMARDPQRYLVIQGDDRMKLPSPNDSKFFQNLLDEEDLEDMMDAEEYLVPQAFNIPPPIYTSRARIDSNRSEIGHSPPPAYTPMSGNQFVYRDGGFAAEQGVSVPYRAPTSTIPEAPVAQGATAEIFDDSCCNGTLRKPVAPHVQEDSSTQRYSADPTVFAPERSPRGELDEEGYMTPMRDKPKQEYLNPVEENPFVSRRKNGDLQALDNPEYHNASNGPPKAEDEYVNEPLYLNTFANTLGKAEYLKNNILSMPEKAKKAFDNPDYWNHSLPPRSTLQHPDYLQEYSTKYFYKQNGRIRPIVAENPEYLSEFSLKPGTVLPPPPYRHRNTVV
Data set [11] has as its system erlotinib-resistant H1975 cell line. Particulars: cited from earlier work.
Setting [12] is: RH75% 5 days, 25° C., uncovered.
[13] abbreviates: RH75% 10 days, 25° C., uncovered.
[14] abbreviates: RH92.5% 5 days, 25° C., uncovered.
Setting [15] is: RH92.5% 10 days, 25° C., uncovered.

In brackets after ≈: the same amount, converted by molar mass. Read-outs that look alike come from different tables or passages of the source.

The Cmax is the maximum level reached in the sampled fluid or tissue. For orientation: Tmax means the time from dosing to the highest level. In the case of `C=CC(=O)Nc1cc2c(Nc3ccc(F)c(Cl)c3)ncnc2cc1OCC1CC2(CCN(C)CC2)C1` [Amorphous form, N-(4-((3-chloro-4-fluorophenyl)amino)-7-((7-methyl-7-azaspiro[3.5]nonan-2-yl)methoxy)quinazolin-6-yl)acrylamide], in data set [1], the AUC0-t came out at 68.6 ng·h/mL, the AUCinf was 79.9 ng·h/mL, the Cmax is listed as 16.6 ng/mL and the T1/2 is recorded as 2.47 h. Also, in [1], the Tmax worked out at 2.00 h.

As usually defined, the solubility is how much of the substance goes into solution per volume. What is called AUC(0-inf) is total exposure, with the tail of the curve extrapolated. A low value points to low exposure. Regarding `C=CC(=O)Nc1cc2c(Nc3ccc(F)c(Cl)c3)ncnc2cc1OCC1CC2(CCN(C)CC2)C1` [Crystal form I, N-(4-((3-chloro-4-fluorophenyl)amino)-7-((7-methyl-7-azaspiro[3.5]nonan-2-yl)methoxy)quinazolin-6-yl)acrylamide], the “Soluble property (descriptive term)” value in data set [2] (25° C.) was “slightly soluble, (soluble”. Further, the solubility in data set [2] (25 °C, thermodynamic from solid) came out at 20 mg/mL (≈ 39.2 mM); in [3] (thermodynamic from solid), 39.1 mg/mL (≈ 76.7 mM). For the same compound, in data set [1], the T1/2 is recorded as 4.95 h. Besides, the AUC(0-inf) in [1] (male, beagle, dog, plasma, po) is 115 ng·h/mL. In [1] (male, beagle, dog, plasma, po, read-out: AUC0-t), the AUC0-t stood at 112 ng·h/mL. In data set [1] (male, beagle, dog, plasma, po, read-out: Cmax), the Cmax came out at 15.3 ng/mL. Moreover, the Tmax in data set [1] (male, dog, plasma, po, read-out: Tmax) is 2 h. In addition, the Content stood at 100.8% in data set [4] (0 day); 100.7% in data set [4] (60° C.-covered-1 month); 100.9% in data set [4] (60° C.-covered-5 days); 100.7% in data set [4] (60° C.-covered-10 days); 100.8% in data set [5] (0 day); 100.7% in data set [5] (25° C. 1 month). For the same compound, the Content in data set [5] (40° C. 1 month) is reported as 100.9%; in [6], 100.8%. Further, the Moisture content in data set [4] (0 day) was found to be 3.9%; in [4] (60° C.-covered-1 month) it was 4.4%; in data set [4] (60° C.-covered-5 days), 4.5%; in data set [4] (60° C.-covered-10 days) it was 4.5%; in [5] (0 day), 3.9%; in data set [5] (25° C. 1 month) it was 4.2%. The “Moisture content” value in data set [5] (40° C. 1 month) turned out to be 4.6%; in [6], 4.3%. Besides, the Relevant substances is given as 0.15% in [4] (0 day); 0.20% in data set [4] (60° C.-covered-1 month); 0.23% in data set [4] (60° C.-covered-5 days); 0.24% in data set [4] (60° C.-covered-10 days); 0.15% in data set [5] (0 day); 0.18% in data set [5] (25° C. 1 month). Further, the results for the Relevant substances in [5] (40° C. 1 month) and in data set [6] were 0.19% and 0.18%, respectively. Also, the pH is 2.8 in data set [4] (0 day); 2.8 in [4] (60° C.-covered-1 month); 2.8 in [4] (60° C.-covered-5 days); 2.7 in data set [4] (60° C.-covered-10 days); 2.8 in data set [5] (0 day); 2.8 in data set [5] (25° C. 1 month). Also, the pH in data set [5] (40° C. 1 month) and in [6] was 2.8 in each case. Further, in [4] (kept under various conditions for 1 month (Tables 3 and 4)), the Overall stability conclusion result was “high stability”.

Turning to `C=CC(=O)Nc1cc2c(Nc3ccc(F)c(Cl)c3)ncnc2cc1OCC1CC2(CCN(C)CC2)C1` [Crystal form II, N-(4-((3-chloro-4-fluorophenyl)amino)-7-((7-methyl-7-azaspiro[3.5]nonan-2-yl)methoxy)quinazolin-6-yl)acrylamide], the Soluble property result in [2] (25° C.) is on record as “property: 23.23) mg/mL”. Besides, the “Soluble property (descriptive term)” value in data set [2] (25° C.) was “slightly soluble, (soluble”. For the same compound, the “Solubility (saturated solubility)” value in [3] is recorded as “solubility: 28.94 mg/mL”. In addition, the AUC0-t in data set [1] turned out to be 110 ng·h/mL. Also, the AUCinf in data set [1] was 111 ng·h/mL. This compound also gave a Cmax in data set [1] of 14.6 ng/mL. Further, in data set [1], the T1/2 worked out at 3.98 h. In addition, the Tmax in data set [1] turned out to be 2.00 h. The Moisture content came out at 13.1% in data set [7] (0 day); 13.4% in data set [7] (25° C. 3 months, uncovered); 13.1% in data set [7] (25° C. 30 days, uncovered); 4.5% in data set [7] (40° C. 5 days, uncovered); 5.6% in data set [7] (40° C. 10 days, uncovered); 5.3% in data set [7] (40° C. 30 days, uncovered). For the same compound, the Moisture content amounted to 4.4% in [7] (60° C. 5 days, uncovered); 5.3% in data set [7] (60° C. 10 days, uncovered); 13.2% in data set [7] (Light 5 days, uncovered); 13.3% in [7] (Light 10 days, uncovered); 13.2% in [7] (setting [12]); 13.3% in data set [7] (setting [13]). Besides, the Moisture content in data set [7] (setting [14]) was found to be 13.4%; in [7] (setting [15]), 13.5%. Besides, the Relevant substances in data set [7] (0 day) stood at 1.2%; in data set [7] (25° C. 3 months, uncovered), 1.3%; in data set [7] (25° C. 30 days, uncovered), 1.3%; in [7] (40° C. 5 days, uncovered) it was 1.3%; in data set [7] (40° C. 10 days, uncovered), 1.6%; in [7] (40° C. 30 days, uncovered), 3.0%. The Relevant substances in data set [7] (60° C. 5 days, uncovered) is on record as 1.8%; in data set [7] (60° C. 10 days, uncovered), 2.3%; in data set [7] (Light 5 days, uncovered), 1.5%; in data set [7] (Light 10 days, uncovered), 1.8%; in data set [7] (setting [12]), 1.3%; in [7] (setting [13]) it was 1.3%. For the same compound, the Relevant substances is 1.2% in [7] (setting [14]) and 1.3% in data set [7] (setting [15]). Also, the “Crystal form XRPD” value in [7] (40° C. 5 days, uncovered) is “Crystal form I”; in data set [7] (40° C. 10 days, uncovered) it was “Crystal form I”; in data set [7] (40° C. 30 days, uncovered), “Crystal form I”; in [7] (60° C. 5 days, uncovered), “Crystal form I”; in data set [7] (60° C. 10 days, uncovered) it was “Crystal form I”. Moreover, the Overall stability conclusion entry in [7] (Table 5 conditions) is recorded as “sensitive to high temperature conditions”.

On to `C=CC(=O)Nc1cc2c(Nc3ccc(F)c(Cl)c3)ncnc2cc1OCC1CC2(CCN(C)CC2)C1` [Formula (I), N-(4-((3-chloro-4-fluorophenyl)amino)-7-((7-methyl-7-azaspiro[3.5]nonan-2-yl)methoxy)quinazolin-6-yl)acrylamide], for which the “Inhibition of EGFR” value in data set [8] was “effectively inhibit EGFR”. In data set [9], the “Inhibitory effect on HER2” value was “inhibitory effect”. In addition, the “Inhibitory effect on HER4” value in [10] is listed as “inhibitory effect”. Moreover, the “Inhibitory effect on H1975 cell line” value in data set [11] is on record as “significantly inhibitory effect”.
